Experimental data published in BindingDB's records for patent US12370182 (Richter Gedeon, 2025).

Target: T1, Gamma-aminobutyric acid receptor subunit alpha-5 (Homo sapiens, UniProt P31644)
T1 sequence (P31644 whole entry): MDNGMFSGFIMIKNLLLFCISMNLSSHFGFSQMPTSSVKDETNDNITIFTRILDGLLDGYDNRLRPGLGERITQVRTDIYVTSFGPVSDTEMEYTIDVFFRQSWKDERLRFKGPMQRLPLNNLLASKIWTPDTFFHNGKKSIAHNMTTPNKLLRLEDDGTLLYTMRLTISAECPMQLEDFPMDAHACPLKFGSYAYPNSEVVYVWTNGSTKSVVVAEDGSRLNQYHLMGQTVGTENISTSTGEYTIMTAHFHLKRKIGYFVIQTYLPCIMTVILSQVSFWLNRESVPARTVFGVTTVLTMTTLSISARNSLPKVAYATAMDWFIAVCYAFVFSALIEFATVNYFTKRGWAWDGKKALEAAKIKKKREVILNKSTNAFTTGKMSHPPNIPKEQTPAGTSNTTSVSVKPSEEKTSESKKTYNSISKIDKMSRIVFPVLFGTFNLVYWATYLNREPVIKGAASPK
Assay: Binding Assay
Method: Receptor binding assays were performed in 96-well format in deep-well plates. For each 96-well plate one ampulle of membrane homogenate was thawed and diluted in binding buffer (50 mM Tris pH=7.4, 100 mM KCl) and 200 μL was dispensed into each well. Radioligand [3H]Ro151788 (Perkin Elmer: NET757250UC) was prepared in binding buffer and added to each well in 50 μL volume to give final concentration of 0.5 nM. Test compounds in suitable concentration(s) were added in additional 50 μL. The final assay volume was 300 μL. Incubation was carried out for 60 minutes at 4° C. For non-specific binding 10 μM unlabeled diazepam was used. After incubation samples were filtered over UniFilter GF/B™ using Filtermate Harvester (Perkin Elmer) and washed with 5×1 mL binding buffer. The plate was dried at 40° C. for an hour and 40 μL Microscint (Perkin Elmer) scintillation cocktail was added to each well. The plate was read in Microbeta (Perkin Elmer).

| Ki | SMILES |
| --- | --- |
| 31 nM | Cc1nnn(-c2ccc(F)cc2)c1COc1ccc2c(n1)CN(C(=O)C(F)(F)F)C2 [US12370182, Example 51] |
| 36 nM | Cc1onc(-c2ccc(F)cc2)c1COc1ccc2c(n1)CCN(C(=O)N1CCCCC1)C2 [US12370182, Example 85] |
